What was measured:
Pseudomonas aeruginosa [1] = test: Antimicrobial activity against Pseudomonas aeruginosa M1251 by Etest
Pseudomonas aeruginosa [2] = test: Antimicrobial activity against Pseudomonas aeruginosa R70 Etest; format: functional
Pseudomonas aeruginosa [3] = test: Antimicrobial activity against Pseudomonas aeruginosa R20 Etest; format: functional
Pseudomonas aeruginosa [4] = test: Antimicrobial activity against Pseudomonas aeruginosa AHP Etest; format: functional
Pseudomonas aeruginosa [5] = test: Antimicrobial activity against Pseudomonas aeruginosa Z799/61 by Etest; format: functional
Pseudomonas aeruginosa [6] = test: Antimicrobial activity against Pseudomonas aeruginosa 1405-con D2 by Etest; format: functional
Pseudomonas aeruginosa [7] = test: Antimicrobial activity against Pseudomonas aeruginosa isolate 1530c from fibrosis patient by Etest; format: functional
Pseudomonas aeruginosa [8] = test: Antimicrobial activity against Pseudomonas aeruginosa isolate 1693c from fibrosis patient by Etest; format: functional
Pseudomonas aeruginosa [9] = test: Antimicrobial activity against Pseudomonas aeruginosa isolate 17145c from fibrosis patient by Etest; format: functional
Pseudomonas aeruginosa [10] = test: Antimicrobial activity against Pseudomonas aeruginosa isolate 1529c from fibrosis patient by Etest; format: functional
Pseudomonas aeruginosa [11] = test: Antimicrobial activity against Pseudomonas aeruginosa isolate 14169c from fibrosis patient by Etest; format: functional
Pseudomonas aeruginosa [12] = test: Antimicrobial activity against Pseudomonas aeruginosa isolate 1247c from fibrosis patient by Etest; format: functional
Pseudomonas aeruginosa [13] = test: Antimicrobial activity against Pseudomonas aeruginosa isolate 1681c from fibrosis patient by Etest; format: functional
Pseudomonas aeruginosa [14] = test: Antimicrobial activity against Pseudomonas aeruginosa isolate 1352c from fibrosis patient by Etest; format: functional
Pseudomonas aeruginosa [15] = test: Antimicrobial activity against Pseudomonas aeruginosa isolate 1333c from fibrosis patient by Etest; format: functional
Pseudomonas aeruginosa [16] = test: Antimicrobial activity against Pseudomonas aeruginosa isolate 1248c from fibrosis patient by Etest; format: functional
Pseudomonas aeruginosa [17] = test: Antimicrobial activity against Pseudomonas aeruginosa isolate 15110c from fibrosis patient by Etest; format: functional
Pseudomonas aeruginosa [18] = test: Antimicrobial activity against Pseudomonas aeruginosa isolate 12142c from fibrosis patient by Etest; format: functional
Pseudomonas aeruginosa [19] = test: Antimicrobial activity against Pseudomonas aeruginosa isolate 1712c from fibrosis patient by Etest; format: functional
Pseudomonas aeruginosa [20] = test: Antimicrobial activity against Pseudomonas aeruginosa isolate 1495c from fibrosis patient by Etest; format: functional
Pseudomonas aeruginosa [21] = test: Antimicrobial activity against Pseudomonas aeruginosa isolate 1726 from fibrosis patient by Etest; format: functional
Pseudomonas aeruginosa [22] = test: Antimicrobial activity against Pseudomonas aeruginosa isolate 15107 from fibrosis patient by Etest; format: functional
Pseudomonas aeruginosa [23] = test: Antimicrobial activity against Pseudomonas aeruginosa isolate 16008 from fibrosis patient by Etest; format: functional
Pseudomonas aeruginosa [24] = test: Antimicrobial activity against Pseudomonas aeruginosa isolate 13167 from fibrosis patient by Etest; format: functional
Pseudomonas aeruginosa [25] = test: Antimicrobial activity against Pseudomonas aeruginosa isolate 1240 from fibrosis patient by Etest; format: functional
Pseudomonas aeruginosa [26] = test: Antimicrobial activity against Pseudomonas aeruginosa isolate 3149 from fibrosis patient by Etest; format: functional
Pseudomonas aeruginosa [27] = test: Antimicrobial activity against Pseudomonas aeruginosa isolate 12102 from fibrosis patient by Etest; format: functional
Pseudomonas aeruginosa [28] = test: Antimicrobial activity against Pseudomonas aeruginosa isolate 1253 from fibrosis patient by Etest; format: functional
Pseudomonas aeruginosa [29] = test: Antimicrobial activity against Pseudomonas aeruginosa isolate 1665 from fibrosis patient by Etest; format: functional
Pseudomonas aeruginosa [30] = test: Antimicrobial activity against Pseudomonas aeruginosa isolate 17112 from fibrosis patient by Etest; format: functional
Pseudomonas aeruginosa [31] = test: microbe, parasite or virus in culture; conditions: 2779-con
Description: Antimicrobial activity against Pseudomonas aeruginosa 2779-con by Etest

Pseudomonas aeruginosa [32] = test: microbe, parasite or virus in culture; conditions: isolate 13120
Description: Antimicrobial activity against Pseudomonas aeruginosa isolate 13120 from fibrosis patient by Etest

Measured: MIC

CO/N=C(\C(=O)N[C@@H]1C(=O)N2C(C(=O)O)=C(COC(C)=O)CS[C@H]12)c1csc(N)n1 [CEFOTAXIME]
> 256 µg/mL: Pseudomonas aeruginosa [6] | Pseudomonas aeruginosa [13] | Pseudomonas aeruginosa [14] | Pseudomonas aeruginosa [15] | Pseudomonas aeruginosa [16] | Pseudomonas aeruginosa [17] | Pseudomonas aeruginosa [18] | Pseudomonas aeruginosa [19] | Pseudomonas aeruginosa [20] | Pseudomonas aeruginosa [24] | Pseudomonas aeruginosa [29] | Pseudomonas aeruginosa [30] | Pseudomonas aeruginosa [31]
128 µg/mL: Pseudomonas aeruginosa [1] | Pseudomonas aeruginosa [8] | Pseudomonas aeruginosa [9] | Pseudomonas aeruginosa [11] | Pseudomonas aeruginosa [12] | Pseudomonas aeruginosa [28] | Pseudomonas aeruginosa [32]
32 µg/mL: Pseudomonas aeruginosa [7] | Pseudomonas aeruginosa [10]
4 µg/mL: Pseudomonas aeruginosa [3] | Pseudomonas aeruginosa [4]
0.5 µg/mL: Pseudomonas aeruginosa [5]
64 µg/mL: Pseudomonas aeruginosa [23] | Pseudomonas aeruginosa [26] | Pseudomonas aeruginosa [27]
256 µg/mL: Pseudomonas aeruginosa [2] | Pseudomonas aeruginosa [22] | Pseudomonas aeruginosa [25]
16 µg/mL: Pseudomonas aeruginosa [21]

C[C@@H](O)[C@H]1C(=O)N2C(C(=O)O)=C(S[C@@H]3CN[C@H](C(=O)N(C)C)C3)[C@H](C)[C@H]12 [MEROPENEM]
4 µg/mL: Pseudomonas aeruginosa [9] | Pseudomonas aeruginosa [10] | Pseudomonas aeruginosa [11] | Pseudomonas aeruginosa [12] | Pseudomonas aeruginosa [23] | Pseudomonas aeruginosa [24]
0.12 µg/mL: Pseudomonas aeruginosa [21]
≤ 0.06 µg/mL: Pseudomonas aeruginosa [5]
0.25 µg/mL: Pseudomonas aeruginosa [4]
1 µg/mL: Pseudomonas aeruginosa [31]
16 µg/mL: Pseudomonas aeruginosa [14] | Pseudomonas aeruginosa [15] | Pseudomonas aeruginosa [16] | Pseudomonas aeruginosa [17] | Pseudomonas aeruginosa [27]
8 µg/mL: Pseudomonas aeruginosa [1] | Pseudomonas aeruginosa [6] | Pseudomonas aeruginosa [13] | Pseudomonas aeruginosa [25] | Pseudomonas aeruginosa [26]
0.5 µg/mL: Pseudomonas aeruginosa [3] | Pseudomonas aeruginosa [7]
> 32 µg/mL: Pseudomonas aeruginosa [2] | Pseudomonas aeruginosa [20] | Pseudomonas aeruginosa [29] | Pseudomonas aeruginosa [30]
32 µg/mL: Pseudomonas aeruginosa [18] | Pseudomonas aeruginosa [19] | Pseudomonas aeruginosa [28] | Pseudomonas aeruginosa [32]
2 µg/mL: Pseudomonas aeruginosa [8] | Pseudomonas aeruginosa [22]

NCC[C@H](O)C(=O)N[C@@H]1C[C@H](N)[C@@H](O[C@H]2O[C@H](CN)[C@@H](O)[C@H](O)[C@H]2O)[C@H](O)[C@H]1O[C@H]1O[C@H](CO)[C@@H](O)[C@H](N)[C@H]1O [AMIKACIN]
32 µg/mL: Pseudomonas aeruginosa [7] | Pseudomonas aeruginosa [11] | Pseudomonas aeruginosa [23] | Pseudomonas aeruginosa [28]
4 µg/mL: Pseudomonas aeruginosa [6] | Pseudomonas aeruginosa [25] | Pseudomonas aeruginosa [27]
≤ 0.5 µg/mL: Pseudomonas aeruginosa [3] | Pseudomonas aeruginosa [4]
2 µg/mL: Pseudomonas aeruginosa [21]
> 64 µg/mL: Pseudomonas aeruginosa [12] | Pseudomonas aeruginosa [14] | Pseudomonas aeruginosa [16] | Pseudomonas aeruginosa [17] | Pseudomonas aeruginosa [18] | Pseudomonas aeruginosa [19] | Pseudomonas aeruginosa [20] | Pseudomonas aeruginosa [22] | Pseudomonas aeruginosa [26] | Pseudomonas aeruginosa [29]
64 µg/mL: Pseudomonas aeruginosa [9] | Pseudomonas aeruginosa [10] | Pseudomonas aeruginosa [13] | Pseudomonas aeruginosa [15] | Pseudomonas aeruginosa [24]
1 µg/mL: Pseudomonas aeruginosa [1] | Pseudomonas aeruginosa [2] | Pseudomonas aeruginosa [5] | Pseudomonas aeruginosa [8] | Pseudomonas aeruginosa [30] | Pseudomonas aeruginosa [31] | Pseudomonas aeruginosa [32]

Source: ChEMBL document CHEMBL1255447, “Efflux pumps, OprD porin, AmpC beta-lactamase, and multiresistance in Pseudomonas aeruginosa isolates from cystic fibrosis patients” (2010)
